According to ChEMBL document CHEMBL5465560, “Selectivity Literature for EUbOPEN Chemogenomic Library” (2024):
Each block holds one compound with its values, some of them ahead of it.

What was measured:
[1] = target: Tyrosine-protein kinase Srms (Homo sapiens) (UniProt Q9H3Y6); assay: Selectivity interaction (Kinase panel (Eurofins)) EUB0001564a SRMS; settings: at 1 µM
[2] = target: T1, Mitogen-activated protein kinase 13 (Homo sapiens) (UniProt O15264); assay: Selectivity interaction (SelectScreen profiling (Invitrogen)) EUB0000607a MAPK13; settings: at 2 µM
T1 sequence (whole entry): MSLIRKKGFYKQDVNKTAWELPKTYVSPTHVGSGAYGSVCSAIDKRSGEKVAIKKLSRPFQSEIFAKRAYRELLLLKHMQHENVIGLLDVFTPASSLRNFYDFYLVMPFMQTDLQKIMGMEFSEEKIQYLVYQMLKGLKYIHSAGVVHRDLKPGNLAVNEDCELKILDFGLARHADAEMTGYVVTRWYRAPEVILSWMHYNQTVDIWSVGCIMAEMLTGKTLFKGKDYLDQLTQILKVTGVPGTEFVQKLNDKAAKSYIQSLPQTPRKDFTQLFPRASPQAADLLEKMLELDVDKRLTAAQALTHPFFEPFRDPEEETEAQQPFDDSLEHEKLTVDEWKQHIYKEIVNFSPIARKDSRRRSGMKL

[3] = target: Serine/threonine-protein kinase 32C (Homo sapiens) (UniProt Q86UX6); assay: Selectivity interaction (KinomeScan (DiscoverX)) EUB0000607a STK32C; settings: at 10 µM
[4] = target: T2, Histone-lysine N-methyltransferase EHMT2 (Homo sapiens) (UniProt Q96KQ7); settings: at 10 µM
T2 sequence (whole entry): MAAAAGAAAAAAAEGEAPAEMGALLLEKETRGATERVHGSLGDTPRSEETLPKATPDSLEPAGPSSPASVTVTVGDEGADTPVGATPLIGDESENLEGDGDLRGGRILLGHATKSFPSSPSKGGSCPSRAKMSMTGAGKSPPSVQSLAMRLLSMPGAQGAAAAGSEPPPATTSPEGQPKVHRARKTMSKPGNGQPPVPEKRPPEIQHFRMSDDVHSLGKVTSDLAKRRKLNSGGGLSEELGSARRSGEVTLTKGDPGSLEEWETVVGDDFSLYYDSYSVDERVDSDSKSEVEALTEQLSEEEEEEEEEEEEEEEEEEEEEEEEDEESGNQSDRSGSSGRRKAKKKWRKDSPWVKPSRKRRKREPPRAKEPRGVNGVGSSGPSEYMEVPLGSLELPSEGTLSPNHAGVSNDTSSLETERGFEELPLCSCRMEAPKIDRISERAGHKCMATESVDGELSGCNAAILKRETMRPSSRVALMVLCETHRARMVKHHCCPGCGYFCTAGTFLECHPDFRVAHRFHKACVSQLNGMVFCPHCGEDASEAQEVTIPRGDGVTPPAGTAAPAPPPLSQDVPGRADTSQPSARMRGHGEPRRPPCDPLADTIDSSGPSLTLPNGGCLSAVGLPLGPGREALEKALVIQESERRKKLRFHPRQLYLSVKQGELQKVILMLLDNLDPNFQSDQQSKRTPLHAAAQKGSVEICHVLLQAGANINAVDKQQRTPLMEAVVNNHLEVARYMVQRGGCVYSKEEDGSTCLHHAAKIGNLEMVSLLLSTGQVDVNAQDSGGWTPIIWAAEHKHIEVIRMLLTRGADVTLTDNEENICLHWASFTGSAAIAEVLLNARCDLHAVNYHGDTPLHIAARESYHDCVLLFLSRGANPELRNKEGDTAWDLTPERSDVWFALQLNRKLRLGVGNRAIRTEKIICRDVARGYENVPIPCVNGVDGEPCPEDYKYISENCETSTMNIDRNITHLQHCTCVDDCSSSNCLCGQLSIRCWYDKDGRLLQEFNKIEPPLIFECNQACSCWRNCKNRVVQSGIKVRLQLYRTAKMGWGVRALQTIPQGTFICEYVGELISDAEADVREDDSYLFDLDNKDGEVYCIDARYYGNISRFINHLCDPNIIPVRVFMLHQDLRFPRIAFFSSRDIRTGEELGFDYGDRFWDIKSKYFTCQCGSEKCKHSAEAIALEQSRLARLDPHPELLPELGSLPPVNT

[5] = target: Phosphatidylinositol 4-phosphate 3-kinase C2 domain-containing subunit beta (Homo sapiens) (UniProt O00750); assay: Selectivity interaction (ProQinase) EUB0000171b PIK3C2B
[6] = target: T3, Ephrin type-B receptor 3 (Homo sapiens) (UniProt P54753); assay: Selectivity interaction (KinomeScan (DiscoverX)) EUB0000666a EPHB3; settings: at 10 µM
T3 sequence (whole entry): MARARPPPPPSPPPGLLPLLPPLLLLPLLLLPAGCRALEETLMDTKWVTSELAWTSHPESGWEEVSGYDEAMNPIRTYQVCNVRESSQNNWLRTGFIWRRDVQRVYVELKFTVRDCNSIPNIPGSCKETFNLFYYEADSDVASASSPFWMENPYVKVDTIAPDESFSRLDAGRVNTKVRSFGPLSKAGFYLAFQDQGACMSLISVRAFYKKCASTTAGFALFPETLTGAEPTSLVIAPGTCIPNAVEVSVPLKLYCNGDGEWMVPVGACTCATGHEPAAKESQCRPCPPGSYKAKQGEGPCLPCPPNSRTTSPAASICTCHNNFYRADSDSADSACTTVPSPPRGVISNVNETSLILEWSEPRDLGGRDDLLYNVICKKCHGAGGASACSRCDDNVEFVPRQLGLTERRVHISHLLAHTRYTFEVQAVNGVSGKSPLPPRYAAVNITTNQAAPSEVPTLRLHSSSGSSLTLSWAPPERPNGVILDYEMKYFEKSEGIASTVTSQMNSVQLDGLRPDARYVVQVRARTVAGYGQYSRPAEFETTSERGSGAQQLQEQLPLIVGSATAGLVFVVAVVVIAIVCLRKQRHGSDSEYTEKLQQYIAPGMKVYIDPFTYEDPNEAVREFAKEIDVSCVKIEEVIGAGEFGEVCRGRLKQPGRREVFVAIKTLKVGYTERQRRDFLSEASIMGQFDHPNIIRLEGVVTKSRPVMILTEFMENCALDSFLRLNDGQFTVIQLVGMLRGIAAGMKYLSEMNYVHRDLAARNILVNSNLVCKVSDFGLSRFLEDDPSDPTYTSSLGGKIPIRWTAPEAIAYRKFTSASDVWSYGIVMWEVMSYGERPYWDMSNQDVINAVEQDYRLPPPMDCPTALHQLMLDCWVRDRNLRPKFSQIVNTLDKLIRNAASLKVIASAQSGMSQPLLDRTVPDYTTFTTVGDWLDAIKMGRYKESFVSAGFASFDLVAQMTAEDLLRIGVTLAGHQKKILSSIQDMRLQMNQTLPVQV

Sequence of Phosphatidylinositol 4-phosphate 3-kinase C2 domain-containing subunit beta (Homo sapiens) (O00750 whole entry, the tested form may be a part): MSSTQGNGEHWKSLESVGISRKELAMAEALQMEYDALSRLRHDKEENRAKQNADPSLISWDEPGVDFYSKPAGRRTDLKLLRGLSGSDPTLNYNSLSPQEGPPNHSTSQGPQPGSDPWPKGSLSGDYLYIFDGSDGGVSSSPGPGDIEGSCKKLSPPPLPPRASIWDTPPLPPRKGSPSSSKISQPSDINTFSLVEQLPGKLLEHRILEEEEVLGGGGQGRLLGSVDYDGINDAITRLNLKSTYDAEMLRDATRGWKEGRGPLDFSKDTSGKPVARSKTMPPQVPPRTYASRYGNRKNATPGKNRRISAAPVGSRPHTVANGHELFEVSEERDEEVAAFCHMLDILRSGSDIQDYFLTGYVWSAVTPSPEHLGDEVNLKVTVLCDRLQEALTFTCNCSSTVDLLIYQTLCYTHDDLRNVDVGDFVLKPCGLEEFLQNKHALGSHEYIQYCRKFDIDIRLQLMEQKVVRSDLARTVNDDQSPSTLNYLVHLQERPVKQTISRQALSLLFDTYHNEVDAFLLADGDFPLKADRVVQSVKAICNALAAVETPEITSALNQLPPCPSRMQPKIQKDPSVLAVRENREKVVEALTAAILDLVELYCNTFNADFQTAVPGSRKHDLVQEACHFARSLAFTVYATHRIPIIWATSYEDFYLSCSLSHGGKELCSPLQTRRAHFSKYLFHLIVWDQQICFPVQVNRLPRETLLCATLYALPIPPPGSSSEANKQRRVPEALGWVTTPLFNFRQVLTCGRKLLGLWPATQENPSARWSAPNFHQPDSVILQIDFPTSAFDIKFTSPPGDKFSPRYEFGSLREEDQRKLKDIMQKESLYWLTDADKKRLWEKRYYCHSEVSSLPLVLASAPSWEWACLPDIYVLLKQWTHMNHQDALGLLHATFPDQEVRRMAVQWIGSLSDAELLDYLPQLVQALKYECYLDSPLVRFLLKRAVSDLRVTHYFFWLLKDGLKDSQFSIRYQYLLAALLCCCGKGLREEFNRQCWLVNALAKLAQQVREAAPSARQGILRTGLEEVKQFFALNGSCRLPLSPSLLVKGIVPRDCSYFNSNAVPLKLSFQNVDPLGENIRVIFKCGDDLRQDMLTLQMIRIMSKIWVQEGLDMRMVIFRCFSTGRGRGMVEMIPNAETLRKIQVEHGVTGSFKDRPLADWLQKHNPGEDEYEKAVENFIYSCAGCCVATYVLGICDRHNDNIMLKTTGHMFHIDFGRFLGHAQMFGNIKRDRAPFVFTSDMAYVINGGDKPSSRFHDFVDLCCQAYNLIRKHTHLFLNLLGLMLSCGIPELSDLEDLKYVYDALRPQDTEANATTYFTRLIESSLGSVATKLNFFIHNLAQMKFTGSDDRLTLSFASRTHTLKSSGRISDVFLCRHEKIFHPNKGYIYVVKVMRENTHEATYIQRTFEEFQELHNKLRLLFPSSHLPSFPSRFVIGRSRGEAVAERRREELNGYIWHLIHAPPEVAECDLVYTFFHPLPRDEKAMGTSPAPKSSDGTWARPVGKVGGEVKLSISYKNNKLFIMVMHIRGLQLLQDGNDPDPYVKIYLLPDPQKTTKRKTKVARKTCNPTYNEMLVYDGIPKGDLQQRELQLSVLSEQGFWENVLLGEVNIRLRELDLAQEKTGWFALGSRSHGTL
Sequence of Tyrosine-protein kinase Srms (Homo sapiens) (Q9H3Y6 whole entry): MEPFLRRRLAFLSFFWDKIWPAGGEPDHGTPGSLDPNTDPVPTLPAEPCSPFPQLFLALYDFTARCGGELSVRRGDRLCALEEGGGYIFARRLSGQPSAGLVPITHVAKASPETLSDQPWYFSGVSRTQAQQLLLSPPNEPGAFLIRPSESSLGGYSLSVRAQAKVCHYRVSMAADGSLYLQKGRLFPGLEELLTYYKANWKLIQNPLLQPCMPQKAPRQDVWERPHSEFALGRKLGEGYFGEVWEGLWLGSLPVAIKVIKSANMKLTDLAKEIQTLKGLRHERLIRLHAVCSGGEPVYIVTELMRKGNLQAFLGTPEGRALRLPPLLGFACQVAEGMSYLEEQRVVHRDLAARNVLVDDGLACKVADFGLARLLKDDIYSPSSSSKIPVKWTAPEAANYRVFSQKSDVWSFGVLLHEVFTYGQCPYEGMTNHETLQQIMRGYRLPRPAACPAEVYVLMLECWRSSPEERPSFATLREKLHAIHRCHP
Sequence of Serine/threonine-protein kinase 32C (Homo sapiens) (Q86UX6 whole entry): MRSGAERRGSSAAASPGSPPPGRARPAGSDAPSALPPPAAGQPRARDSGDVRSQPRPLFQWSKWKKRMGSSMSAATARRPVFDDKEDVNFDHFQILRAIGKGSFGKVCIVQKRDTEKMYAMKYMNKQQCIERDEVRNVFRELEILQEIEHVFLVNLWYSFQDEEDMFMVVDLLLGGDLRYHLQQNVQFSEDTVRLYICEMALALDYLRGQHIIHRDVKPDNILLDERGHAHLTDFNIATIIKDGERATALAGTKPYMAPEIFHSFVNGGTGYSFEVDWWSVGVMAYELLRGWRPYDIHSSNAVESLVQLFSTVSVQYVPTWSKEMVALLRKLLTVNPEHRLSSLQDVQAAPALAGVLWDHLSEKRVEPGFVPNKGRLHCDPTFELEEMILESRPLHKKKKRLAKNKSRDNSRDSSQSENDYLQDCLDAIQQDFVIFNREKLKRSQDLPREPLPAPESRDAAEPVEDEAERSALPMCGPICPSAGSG

Compound: CNC(=O)Nc1ccc(-c2nc(N3CC4CCC(C3)O4)c3cnn(C4CCC5(CC4)OCCO5)c3n2)cc1
% of inhibition [2]: 4%
% of control [3]: 90%

Compound: O=C(NOC[C@H](O)CO)c1ccc(F)c(F)c1Nc1ccc(I)cc1F
% of control [6]: 89%

Other lines, results leading:

% of inhibition [1]: 26.3%
Compound: CC[C@@H](Nc1c(C#N)c(-c2ccc(-c3cccc(C)c3F)cc2)nc2cnccc12)C(=O)O [BAY-091]

% activity [4]: > 90%
Compound: CNCCN1CCC(c2cc(CN(C)C(=O)c3cccc(Oc4ccccc4)c3)ccn2)CC1

% of control ([5]; at 1 µM): 132%
% of control ([5]; at 5 µM): 133%
Compound: C=CC(=O)Nc1cccc(C(=O)Nc2ccc(Nc3cc(-c4[nH]c(SC)nc4C)ccn3)cc2)c1
